Assay results as given in patent US20120202840A1, “Use of Flubendazole and Vinca Alkaloids for Treatment of Hematological Diseases” (priority 2009, published 2012).

Key:
[1] = tested on: OCI-AML2 cells; assay: MTS cell growth and viability assay, OCI-AML2; type: cell-based; settings: OCI-AML2 cells, FIG. 1A
Protocol: (A) OCI-AML2 cells were treated for 72 h with increasing concentrations of benzimidazoles. After incubation, cell growth and viability was measured by the MTS assay. Data represent the mean percentage of viable cells ±SD from a representative experiment.

[2] = tested on: bovine tubulin; assay: Tubulin polymerization assay; type: biochemical; settings: cell-free, bovine tubulin 1.8 mg/ml; flubendazole 100 μM
Protocol: (§1) A representative figure is shown.
Polymerization of bovine tubulin was measured according to Beyer et al^28. Briefly, bovine tubulin (1.8 mg/ml; Cytoskeleton; Denver, USA) was added to ice cold polymerization buffer (PEM; 80 mM PIPES, 0.5 mM EGTA, 2 mM MgCl2, 10% glycerol and 1 mM GTP) and centrifuged at top speed in a microcentrifuge for 5 min at 4° C. […] Following addition of tubulin, the plate was immediately placed in the spectrophotometer, which was maintained at 37° C., and the absorbance measured every 3 minutes for 2.5 h at 340 nm.

[3] = tested on: advanced solid tumors; settings: Phase I, cited from earlier work
[4] = tested on: leukemia cell lines; assay: Screen of library of 110 drugs for cytotoxicity; type: cell-based
Protocol: OCI-AML2 leukemia cells were treated with increasing concentrations of 8 benzimidazoles. Seventy two hours after incubation, cell growth and viability was measured by the MTS assay.

[5] = tested on: CEM; assay: MTS cell growth and viability assay, CEM; type: cell-based; settings: 3 replicates
Protocol: (§2) Leukemia (U937, MDAY, CEM, CEM-VBL) and solid tumor cell lines (PPC-1, HeLa) were cultured in RPMI 1640 medium. The epidermoid carcinoma cell lines KB-3-1 and KB-4.0-HTI^23 were grown in Dulbecco's Modified Eagle Medium. The lung carcinoma cell lines A549 and A549.EpoB40 were grown in RPMI with the latter supplemented with 20% fetal calf serum (FCS), and 40 nM epothilone B.^24 Leukemia cell lines OCI-AML2, CEM, and NB4 and all the myeloma cell lines (OPM2, KMS11, JJN3 LP1, H929, L1, KMS12, KSM18 and OCI My5) were maintained in Iscove's Modified Dulbecco's Medium (IMDM). TEX cells were maintained in IMDM, 15% FCS, 1% penicillin-streptomycin, 2 mM L-glutamine, 20 ng/mL SCF, 2 ng/mL IL-3. Unless otherwise noted, all media were supplemented with 10% FCS, 100 units/mL of streptomycin and 100 μg/mL of penicillin (all from Hyclone, Logan, Utah). Cells were incubated in a humidified air atmosphere containing 5% CO2 at 37° C.
(§3) Cell growth and viability was measured using the 3-(4,5-dimethylthiazol-2-yl)-5-(3-carboxymethoxyphenyl)-2-(4-sulfophenyl)-2H-tetrazolium inner salt (MTS) reduction assay (Promega, Madison, Wis.) according to the manufacture's protocol and as previously described^25. Cells were seeded in 96 well plates and treated with drug for 72 h. Optical density (OD) was measured at 490 nm.

[6] = tested on: OCI-AML2 cells; settings: after 16 days of treatment; flubendazole 15 mg/kg, vinblastine 0.3 mg/kg
Protocol: Sub-lethally irradiated SCID mice were injected subcutaneously with OCI-AML2 cells (n=20; 10 per group). After implantation, mice were treated with 50 mg/kg flubendazole (A), 20 mg/kg flubendazole (B), or vehicle control by intraperitoneal injection daily. Tumor volume was measured over time. After 16 days (20 mg/kg dose) or 18 days (50 mg/kg dose), mice were sacrificed and tumors were excised, measured and weighted.
Sub-lethally irradiated SCID mice were injected subcutaneously with OCI-AML2 cells (n=40; 10 per group). […] After 16 (C) or 18 (D) days, mice were sacrificed and tumors were excised, measured and weighted. Data represent the mean±SD tumor weight.
Sub-lethally irradiated SCID mice were injected subcutaneously in the left flank with leukemia OCI-AML2 (2.0×10^6) or myeloma OPM2 (1.0×10^7) cells. Mice were then randomly assigned to receive flubendazole (in 0.9% NaCl and 0.01% tween-80) or vehicle control (0.9% NaCl and 0.01% tween-80) intraperitoneally. […] Tumor volumes (tumor length×width^2×0.5236) were monitored daily using calipers. At the end of the experiment (16-18 days), mice were sacrificed, tumors excised and tumor volume and weight measured. All animal studies were carried out according to the regulations of the Canadian Council on Animal Care and with the approval of the local ethics review board.

[7] = tested on: bovine tubulin; assay: Measurement of tubulin sulfhydryl groups (DTNB); type: biochemical; settings: flubendazole 100 μM, vinblastine 10 μM
Protocol: as §1
The ability of microtubule target drugs to alter tubulin structure was assessed by measuring the number of reactive cysteine residues using the sulfhydryl reagent 5,5′-Dithio-bis(2-nitrobenzoic acid) (DTNB; Sigma) as previously described^19,29. […] After incubation, DTNB was added (100 μM final concentration) and the absorbance was measured in a 1 cm path length cuvette at 412 nm for 60 min at 37° C. The number of sulfhydryl groups were determined by using a molar extinction coefficient for DTNB of 13 600 (M^−1, cm^−1).^29

[8] = tested on: bovine tubulin; assay: Site of binding to tubulin (colchicine-tubulin fluorescence); settings: tubulin 5.0 μM, 100 μM drug 30 min, then colchicine 10 μM 60 min
Protocol: (C) Tubulin (5.0 μM) was incubated for 30 min with 100 μM vinblastine, 100 μM flubendazole, or buffer control. […] A representative figure is shown.
The site of flubendazole binding was determined similar to Gupta et al^19. Bovine tubulin (5.0 μM) was incubated with 100 μM flubendazole, 100 μM vinblastine or buffer control for 30 min at 37° C.

[9] = tested on: CEM-VBL; assay: MTS assay, CEM-VBL (Pgp over-expressing); type: cell-based
Protocol: Over-expression of P-glycoprotein (Pgp, MDR1) renders cells resistant to vinca alkaloid microtubule inhibitors.^43 Therefore, the effects of Pgp over-expression on flubendazole's cytotoxicity were tested. CEM-VBL cells over-express Pgp,^44 which was confirmed with a rhodamine dye exclusion assay. CEM wild type and CEM-VBL cells were treated with increasing concentrations of flubendazole or vinblastine and cell viability measured by the MTS assay (Table 1). […] In contrast, CEM-VBL cells over-expressing Pgp were resistant to vinblastine at concentrations greater than 5.0 μM (Table 1).
as §2, §3

## c1ccc2[nH]cnc2c1 [1,3-benzidiazole]
[1]
  induction of cell death: did not induce cell death
[2]
  effect on tubulin polymerization / microtubule formation: did not inhibit microtubule formation

## CCCSc1ccc2nc(NC(=O)OC)[nH]c2c1 [albendazole]
[3]; 7 patients
  patients with severe neutropenia: 3 patients
[3]; advanced solid tumors
  patients with reduced levels of the tumor markers AFP and CEA: 2 of 7

## COC(=O)Nc1nc2ccc(C(=O)c3ccccc3)cc2[nH]1 [mebendazole]
[4]
  cytotoxicity in library screen: cytotoxic

## c1ccc2[nH]c(-c3cscn3)nc2c1 [thiabendazole]
[1]
  induction of cell death: did not induce cell death
[2]
  effect on tubulin polymerization / microtubule formation: did not inhibit microtubule formation

## vinblastine
[5]
  IC50: 140 ± 10 nM
[6]
  mouse body weight: does not affect mouse body weight
[7]
  reduction in number of reactive cysteines compared to buffer control: 8.6±2.5
[8]
  colchicine fluorescence (colchicine binding to tubulin): had no effect
[9]; CEM-VBL, 3 replicates
  IC50: > 5000 nM
[9]; Pgp over-expression
  sensitivity of CEM-VBL cells compared to wild type controls: resistant
